Measurements published in US9242945B2, “Substituted 2-benzylidene-2H-benzo[b][1,4]thiazin-3(4H)-ones, derivatives thereof, and therapeutic uses thereof” (TEMPLE UNIVERSITY—OF THE COMMONWEALTH SYSTEM OF HIGHER …, priority 2011, dated 2016).

Assays:
LnCap = experiment: Cancer cell cytotoxicity assay, LnCap; format: cell-based; conditions: Homo sapiens, Prostate Cancer (Androgen Dependent)
Method: (§1) The effect of the compounds of the invention on tumor cells was determined by the assay described by Latham et al., Oncogene 12:827-837 (1996). Tumor cells K562 (chronic myelogenous leukemia; leukemia cell line +ve for Bcr-Abl) or DU145 (prostate cancer) were plated in 12-well dishes at a cell density of 2.5×10^4 cells well. The plated cells were treated 24 hours later with a compound of the invention dissolved in DMSO at multiple concentrations ranging from 0.01 μM to 100 μM. The plates were examined 96 hours later under an inverted microscope, Olympus CK-2 using a 10× objective, and compound activity was noted by physical observation. When necessary, the total number of viable cells was determined by trypsinizing the wells and counting the number of viable cells, as determined by trypan blue exclusion, using a hemacytometer. Where “Lower” and “Upper” value are provided in Table 5, the IC50 was determined to be within that range. […]
(§2) The cytotoxicity of Compound 42, (Z)-6-((2,6-dichlorobenzyl)sulfonyl)-2-(4-hydroxy-3-nitrobenzylidene)-2H-benzo[b][1,4]thiazin-3(4H)-one, was determined according the assay method of Example 7 on the prostate (androgen dependent or independent), breast and pancreatic cancer cell lines listed in Table 6A, below, and the additional cell lines listed in Table 6B, below. […]

DU145 (prostate cancer) = experiment: Cytotoxicity assay, DU145 tumor cells; format: cell-based; conditions: Homo sapiens
Method: The effect of the compounds of the invention on tumor cells was determined by the assay described by Latham et al., Oncogene 12:827-837 (1996). Tumor cells K562 (chronic myelogenous leukemia; leukemia cell line +ve for Bcr-Abl) or DU145 (prostate cancer) were plated in 12-well dishes at a cell density of 2.5×10^4 cells well. The plated cells were treated 24 hours later with a compound of the invention dissolved in DMSO at multiple concentrations ranging from 0.01 μM to 100 μM. The plates were examined 96 hours later under an inverted microscope, Olympus CK-2 using a 10× objective, and compound activity was noted by physical observation. When necessary, the total number of viable cells was determined by trypsinizing the wells and counting the number of viable cells, as determined by trypan blue exclusion, using a hemacytometer. Where “Lower” and “Upper” value are provided in Table 5, the IC50 was determined to be within that range. When only a “Lower” value is provided and no “Upper” value is listed, the IC50 was that value, or less than or greater than that value, as set forth in the Table.
The cytotoxicity of Compound 42, (Z)-6-((2,6-dichlorobenzyl)sulfonyl)-2-(4-hydroxy-3-nitrobenzylidene)-2H-benzo[b][1,4]thiazin-3(4H)-one, was determined according the assay method of Example 7 on the prostate (androgen dependent or independent), breast and pancreatic cancer cell lines listed in Table 6A, below, and the additional cell lines listed in Table 6B, below. The human mesenchymal stem cell line HMSC.hTERT and normal human fibroblast cell line HFL was included in the test.

BT-474 = experiment: Cancer cell cytotoxicity assay, BT-474; format: cell-based; conditions: Homo sapiens; BT-474, Breast Cancer
Method: as §1, §2

GRANTA = experiment: Cancer cell cytotoxicity assay, GRANTA; format: cell-based; conditions: Mantle cell lymphoma
Method: as §1, §2

MCF-7 = experiment: Cancer cell cytotoxicity assay, MCF-7; format: cell-based; conditions: Homo sapiens, MCF7; MCF-7, Breast Cancer
Method: as §1, §2

CK2α = target: T1, CK2α (Homo sapiens, UniProt P68400); experiment: Casein kinase 2 inhibition, CK2α subunit (32P-ATP kinase assay); format: biochemical; conditions: 20 μM cold ATP; 30 min preincubation, 20 min at 30° C.
T1 construct: CK2α (human full length protein)
Method: The ability of Compound 42 to inhibit the activity of casein kinase 2 (CK2) was determined as follows using the catalytic CK2 subunits CK2α and CK2α2. Two and one half nanograms of CK2α (human full length protein; Invitrogen PV3248), 2.5 ng of a CK2α form containing amino acids 3-339) or 10 ng of CK2α2 (human full length protein; Invitrogen PV3624) was diluted into kinase buffer (20 mM Tris pH 7.5, 10 mM MgCl2, 0.01% NP-40, 1 mM EGTA, 2 mM DTT) and incubated with varying concentrations of Compound 42 at room temperature for 30 minutes. Kinase reactions were initiated by the addition of 1 μg of CK2 substrate α-synuclein or 40 μM CK2 synthetic peptide substrate (AnaSpec, San Jose, Calif.), 20 μM cold ATP, and 20 μCi γ-^32P-ATP. The reactions were incubated at 30° C. for 20 minutes, terminated by the addition of 2× Laemmle sample buffer, boiled for 2 minutes, resolved by 12% acrylamide SDS-PAGE, and subjected to autoradiography.

HMSC.hTERT = experiment: Cytotoxicity assay, human mesenchymal stem cell line HMSC.hTERT; format: cell-based
Method: as §1, §2

[1] = tested on: MDA.MB-231 breast cancer cells; experiment: Cell cycle arrest in cancer cells; format: cell-based; conditions: increasing concentrations
From the text: MDA.MB-231 breast cancer cells treated with increasing concentrations Compound 42

PC3 = experiment: Cancer cell cytotoxicity assay, PC3; format: cell-based; conditions: Homo sapiens, PC-3; PC3, Prostate Cancer
Method: as §1, §2

MDA.MB-468 = experiment: Cancer cell cytotoxicity assay, MDA.MB-468; format: cell-based; conditions: Homo sapiens; MDA.MB-468, Breast Cancer
Method: as §1, §2

A549 = experiment: Cancer cell cytotoxicity assay, A549; format: cell-based; conditions: Homo sapiens; A549, Non-small cell lung cancer
Method: as §1, §2

HFL = experiment: Cytotoxicity assay, normal human fibroblast cell line HFL; format: cell-based
Method: as §1, §2

T1 sequence (P68400 3-339 limits assumed): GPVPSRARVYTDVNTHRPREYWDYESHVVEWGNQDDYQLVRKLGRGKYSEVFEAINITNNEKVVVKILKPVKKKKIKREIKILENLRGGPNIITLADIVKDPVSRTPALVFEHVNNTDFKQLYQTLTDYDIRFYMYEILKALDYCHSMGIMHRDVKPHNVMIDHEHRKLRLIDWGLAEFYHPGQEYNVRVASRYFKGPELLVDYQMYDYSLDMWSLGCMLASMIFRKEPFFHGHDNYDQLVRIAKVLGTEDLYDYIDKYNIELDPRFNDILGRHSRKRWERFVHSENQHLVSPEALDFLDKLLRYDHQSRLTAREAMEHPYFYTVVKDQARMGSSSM

IC50 (CK2α): 0.362 µM
Structure (SMILES): O=C1Nc2cc(S(=O)(=O)Cc3c(Cl)cccc3Cl)ccc2S/C1=C\c1ccc(O)c([N+](=O)[O-])c1 [Compound 42, (Z)-6-((2,6-dichlorobenzyl)sulfonyl)-2-(4-hydroxy-3-nitrobenzylidene)-2H-benzo[b][1,4]thiazin-3(4H)-one]
GI50 (LnCap): 0.25 µM
IC50 (DU145 (prostate cancer); DU-145, 96 h treatment, lower limit of the IC50 range, or the IC50 itself (or its bound) where no Upper value is listed, read-out: DU145 IC50 (μm) Lower (μm)): 0.15 µM
GI50 (DU145 (prostate cancer); DU-145, Prostate Cancer (Androgen Independent)): 0.16 µM
GI50 (BT-474): 0.2 µM
GI50 (GRANTA): 0.08 µM
GI50 (MCF-7): 1 µM
cell death in the normal human stem cell line (HMSC.hTERT): did not cause cell death
GI50 (HMSC.hTERT; Human Mesenchymal Stem cells): > 10 µM
cell cycle arrest in cancer cells [1]: induces cell cycle arrest
GI50 (PC3): 0.16 µM
GI50 (MDA.MB-468): 0.2 µM
GI50 (A549): 0.16 µM
cell death in the normal human fibroblast cell line (HFL): did not cause cell death
GI50 (HFL; Homo sapiens, Normal Fibroblast): > 10 µM
